Entries after “also recorded” stand apart in the source; their conditions may differ.
Tests used:
[1] = Phase II clinical trial of concurrent low-dose Ubenimex and low-dose Afatinib: adverse effects; assay type: in vivo, human patients; conditions: within the combination (FIG. 2)
Procedure: To patients with non-small cell lung cancer having a mutation in the epidermal growth factor receptor (EGFR) gene, 10 mg/day of Ubenimex in a single dose unit (free form) and 20 mg/day of Afatinib (Giotrif®, dimaleate) in a single dose unit were administered in concurrently once a day until no antitumor effects would be exerted. The therapeutic effects and reduction of adverse effects were then inspected. […]

[2] = Afatinib 40 mg/day alone; terminal (stage III to IV) NSCLC patients; 229 patients, phase III; cited from earlier work

CN(C)CC=CC(=O)Nc1cc2c(Nc3ccc(F)c(Cl)c3)ncnc2cc1O[C@H]1CCOC1 [Afatinib, N-[4-[(3-chloro-4-fluorophenyl)amino]-7-[[(3S)-tetrahydro-3-furanyl]oxy]-6-quinazolinyl]-4-(dimethylamino)-2-butenamide]
adverse effects of Afatinib at about 20 mg/day, such as diarrhea or rashes ([1]; about 20 mg/day in a single dose unit): substantially no adverse effects
adverse effects, such as diarrhea and rashes [2]: likely to appear; also recorded: likely to be caused

CC(C)C[C@H](NC(=O)[C@@H](O)[C@H](N)Cc1ccccc1)C(=O)O [Ubenimex, (2S)-2-[(2S,3R)-3-amino-2-hydroxy-4-phenylbutanoylamino]-4-methylpentanoic acid]
adverse effects of Ubenimex at about 10 mg/day ([1]; about 10 mg/day in a single dose unit): substantially no adverse effects
